According to patent US20050209157A1, “Short bioactive peptides and methods for their use” (priority 2001, published 2005):
Read-outs that look alike come from different tables or passages of the source. No end group written: not given here.

Experiments:
[1] = tested on: Pseudomonas aeruginosa ATCC 9027; assay: Antimicrobial assay I, MIC by OD measurement; assay type: cell-based; conditions: 37° C. for 24 hours, absorbance 620 nm
[2] = tested on: Staphylococcus aureus ATCC 6538; assay: Antimicrobial assay I, MIC by OD measurement; assay type: cell-based; conditions: 37° C. for 24 hours, absorbance 620 nm
[3] = tested on: yeast (Saccharomyces cerevisiae); assay: Antimicrobial assay I, yeast assay in RPMI 1640; assay type: cell-based; conditions: RPMI 1640 media
BMKC = assay: Anti-cancer assay, MTT, LD50; assay type: cell-based; conditions: BMKC cloned melanoma line, 24 hours with peptide
Excerpt: (§1) Numbers are LD50 values (μg/mL).

H1299 = assay: Anti-cancer assay, MTT, LD50; assay type: cell-based; conditions: 24 hours with peptide, lung large cell carcinoma
Excerpt: as §1

HeLaS3 = assay: Anti-cancer assay, MTT, LD50; assay type: cell-based; conditions: 24 hours with peptide, cervical carcinoma
Excerpt: as §1

MCF7 = assay: Anti-cancer assay, MTT, LD50; assay type: cell-based; conditions: MCF7 breast adenocarcinoma line, MTT, 24 hours with peptide
Excerpt: as §1

PC3 = assay: Anti-cancer assay, MTT, LD50; assay type: cell-based; conditions: 24 hours with peptide, prostate adenocarcinoma
Excerpt: as §1

SW480 = assay: Anti-cancer assay, MTT, LD50; assay type: cell-based; conditions: SW480 colon adenocarcinoma line, 24 hours with peptide
Excerpt: as §1

in vitro [4] = assay type: cell-based, human; conditions: human, human red blood cells, pH 7, hemolytic assay, concentration at 50% hemolysis, 1 hour at 37° C.; read-out: LD50
P. aeruginosa H374 [5] = assay type: cell-based, Pseudomonas aeruginosa; conditions: for MIC Cm-comb.: MIC of chloramphenicol with peptide at ¼ MIC; for MIC Nal-comb.: MIC of nalidixic acid with peptide at ¼ MIC; for FIC Index: 0.5 or less = synergy
Protocol: (§2) The synergistic effects of the inventive peptides with either chloramphenicol or nalidixic acid against efflux mutants of Pseudomonas aeruginosa were investigated. The MIC values were determined for either nalidixic acid or chloramphenicol alone as baselines. Peptides were added at their ¼ MIC concentration, and the concentration of either nalidixic acid or chloramphenicol to arrive at the MIC was determined. […] The fractional inhibitory concentration (FIC) index was used to determine synergy between peptides and antibiotics. Two-fold serial dilutions of antibiotic were tested in the presence of a constant amount of peptide, equal to one quarter of peptide MIC. The FIC index was determined as follows: FIC=0.25+MICantibiotic in combination/MICantibiotic alone. An FIC index of 0.5 or less is considered as synergy.

P. aeruginosa H774 = assay type: cell-based, Pseudomonas aeruginosa; conditions: P. aeruginosa H744; nalidixic acid + peptide at ¼ MIC; 0.5 or less = synergy
Protocol: as §2

P. aeruginosa = assay type: cell-based, Pseudomonas aeruginosa; conditions: P. aeruginosa H744; MIC of nalidixic acid with peptide at ¼ MIC
Protocol: as §2

WI38 = conditions: MTT, 24 hours with peptide; normal fibroblast line
in vitro [6] = conditions: human, WI38 normal lung fibroblast cells, 24 hours with peptide
E. coli UB1005 = assay type: cell-based, Escherichia coli; conditions: mean of three; 16 to 20 hours at 35° C.; in µg/mL
S. typhimurium 14028S = assay type: cell-based, Salmonella typhimurium; conditions: mean of three; 16 to 20 hours at 35° C.; in µg/mL
P. aeruginosa H374 [7] = assay type: cell-based, Pseudomonas aeruginosa; conditions: mean of three; 16 to 20 hours at 35° C.
[8] = tested on: human red blood cells (RBC); assay: in vitro; assay type: cell-based; conditions: hemolytic assay, concentration at 50% hemolysis, 1 hour at 37° C.
[9] = chloramphenicol + peptide at ¼ MIC
[10] = nalidixic acid + peptide at ¼ MIC, FIC=0.25+MIC comb/MIC alone
[11] = LD50 WI38, WI38 normal lung fibroblast line, MTT

| Substance | paerug9027 (MIC) [1] [µg/mL] | staph6538 (MIC) [2] [µg/mL] | yeast (MIC or MFC) [3] | LD50 BMKC (BMKC) [µg/mL] | H1299 LD50 (H1299) [µg/mL] | HeLaS3 LD50 (HeLaS3) [µg/mL] | LD50 MCF7 (MCF7) [µg/mL] | PC3 LD50 (PC3) [µg/mL] | LD50 SW480 (SW480) [µg/mL] | HC50 at 1 h (in vitro [4]) [µg/mL] | MIC Cm-comb. (P. aeruginosa H374 [5]) [µg/mL] | MIC Nal-comb. (P. aeruginosa H374 [5]) [µg/mL] | FIC Index (P. aeruginosa H374 [5]; [9]) | FIC Index (P. aeruginosa H374 [5]; [10]) | FIC Index (P. aeruginosa H774) | MIC Nal-comb. (P. aeruginosa) [µg/mL] | WI38 LD50 (WI38) [µg/mL] | CC50 at 24 h (in vitro [6]; [11]) [µg/mL] | also measured |
| --- | --- | --- | --- | --- | --- | --- | --- | --- | --- | --- | --- | --- | --- | --- | --- | --- | --- | --- | --- |
| FAKKLAKKLAKLAL-NH2 [P45, FAKKLAKKLAKLAL-NH2] | 100 | 5 | 100 µg/mL | 160 | 330 | 160 | 260 | 170 | 180 | 700 | 16 | 2500 | 1.25 | 0.75 | 1.25 | 624 | 200 | 200 | – |
| FAKLLAKALKKL-NH2 [P103] | 25 | 10 | 100 µg/mL | 75 | 150 | 70 | 46 | 330 | 90 | 650 | 8 | 625 | 0.75 | 0.375 | 1.25 | 624 | 26 | 26 | – |
| GIGKFLHAAKKFAKAFVAEIMNS-NH2 [P300, reference compound] | – | – | – | 130 | 60 | 125 | 22 | 45 | 60 | 250 | 16 | 312 | – | – | – | 156 | 52 | 52 | – |
| FAKLLAKLAKLKL-NH2 [P66] | 50 | 5 | 100 µg/mL | 200 | 130 | 140 | 90 | 170 | 145 | 600 | 16 | 5000 | 1.25 | 1.25 | 1.25 | 624 | 240 | 240 | – |
| FALALKALKKLKKALKKAL-NH2 [P27] | 10 | 10 | 25 µg/mL | 44 | – | – | 14 | – | 26 | 125 | – | – | 0.75 | 0.25 | 1.25 | – | – | 37 | CC50 at 24 h (in vitro [6]; WI38 LD50, MTT, normal fibroblast line): 520 µg/mL |
| FAKKLAKKLKKLAKKLAK-OH [P71] | 15 | 15 | 200 µg/mL | 445 | 320 | 570 | 190 | 270 | 250 | – | 8 | 2500 | 0.75 | 0.75 | 1.25 | 624 | 355 | 355 | E. coli UB1005 MIC (E. coli UB1005): 2; S. typhimurium 14028S MIC (S. typhimurium 14028S): 8; P. aeruginosa H374 MIC (P. aeruginosa H374 [7]): 4 µg/mL |
| FAKLLAKALKLKL-NH2 [P101] | 25 | 10 | 100 µg/mL | 160 | 340 | 170 | 250 | 730 | 170 | 550 | 16 | 5000 | 1.25 | 1.25 | 1.25 | 624 | 300 | 300 | – |
| KTKLFKKFAKKLAKKLKKLAKKL-OH [P80] | 100 | 10 | 100 µg/mL | 76 | 64 | 97 | 29 | 28 | 35 | 900 | 4 | 2500 | 0.5 | 0.75 | 1.25 | 624 | 28 | 28 | – |
| KLALKLALKALKAAKLA-NH2 [P150] | 10 | 100 | > (> indicates greater than 200 μg/mL) | 190 | 185 | 320 | 160 | 74 | 235 | 650 | 8 | 1250 | 0.75 | 0.5 | 0.75 | 312 | 125 | 125 | – |
| FAKKLAKKLKKLAKKLAKLAKKL-NH2 [P307, reference compound] | – | – | – | 83 | 160 | 100 | 38 | 66 | 73 | – | 2 | 625 | 0.375 | 0.375 | 0.5 | 156 | 75 | 75 | LD50 [8]: > (> indicates greater than 1000) |
| FAKLLAKALKKFL-NH2 [P118] | 100 | 10 | 100 µg/mL | 135 | 74 | 87 | 70 | 330 | 115 | 700 | 16 | 2500 | 1.25 | 0.75 | 1.25 | 624 | 170 | 170 | – |
